Test results reported in ChEMBL document CHEMBL1201862, “PubChem BioAssay data set” (2004).
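Cells were grown in 96-well plates and exposed to each compound for 48 hours at five concentrations; endpoints were interpolated linearly between bracketing concentrations, or set to the highest concentration if not reached. The concentration for 50% growth inhibition is given as GI50.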 Active and inactive are the calls of the source. No stated cut-off is given here; in the data, active = GI50 up to about 1.1 µM and inactive = higher.

Experiments:
Assay in all cases: NCI anticancer screen, dose series, 48 h
HOP-92 = test system: HOP-92
SK-MEL-5 = test system: SK-MEL-5
OVCAR-4 = test system: OVCAR-4
HOP-62 = test system: HOP-62
SF-268 = test system: SF-268
EKVX = test system: EKVX
KM12 = test system: KM12
NCI-H226 = test system: NCI-H226
SW-620 = test system: SW-620
COLO 205 = test system: COLO 205
CCRF-CEM = test system: CCRF-CEM
A498 = test system: A498
UO-31 = test system: UO-31
LOX IMVI = test system: LOX IMVI
A549 = test system: A549
TK-10 = test system: TK-10
786-0 = test system: 786-0
MDA-MB-435 = test system: MDA-MB-435
Hs-578T = test system: Hs-578T
DU-145 = test system: DU-145

Measured: GI50

O=c1c2c(c1=O)-c1ccccc1CN2
inactive: HOP-92 > 100 µM | SK-MEL-5 > 100 µM | OVCAR-4 > 100 µM | HOP-62 > 100 µM | SF-268 > 100 µM | EKVX > 100 µM | KM12 > 100 µM | NCI-H226 > 100 µM | SW-620 > 100 µM | COLO 205 > 100 µM | CCRF-CEM > 100 µM | A498 > 100 µM | UO-31 > 100 µM | LOX IMVI > 100 µM | A549 > 100 µM | TK-10 > 100 µM | 786-0 > 100 µM

CC(=O)/C=C(/C=N/O)c1ccccc1
inactive: SK-MEL-5 > 100 µM | MDA-MB-435 > 100 µM | OVCAR-4 > 100 µM | HOP-62 > 100 µM | SF-268 > 100 µM | EKVX > 100 µM | KM12 > 100 µM | NCI-H226 > 100 µM | SW-620 > 100 µM | COLO 205 > 100 µM | CCRF-CEM > 100 µM | UO-31 > 100 µM | LOX IMVI > 100 µM | A549 > 100 µM | Hs-578T > 100 µM | TK-10 > 100 µM | 786-0 > 100 µM

O=C(N/N=C/c1ccc(Cl)cc1)c1ccccc1Nc1ccccc1C(=O)N/N=C/c1ccc(Cl)cc1
inactive: HOP-92 > 100 µM | SK-MEL-5 > 100 µM | MDA-MB-435 > 100 µM | OVCAR-4 > 100 µM | HOP-62 > 100 µM | SF-268 > 100 µM | EKVX > 100 µM | KM12 > 100 µM | NCI-H226 > 100 µM | SW-620 > 100 µM | COLO 205 > 100 µM | DU-145 > 100 µM | CCRF-CEM > 100 µM | A498 > 100 µM | UO-31 > 100 µM | LOX IMVI > 100 µM | A549 88.7 µM | TK-10 > 100 µM | 786-0 > 100 µM

Cc1ncc(COP(=O)(O)O)c(C)c1O
inactive: HOP-92 > 100 µM | SK-MEL-5 > 100 µM | MDA-MB-435 > 100 µM | OVCAR-4 > 100 µM | HOP-62 > 100 µM | SF-268 > 100 µM | EKVX > 100 µM | KM12 > 100 µM | NCI-H226 > 100 µM | SW-620 > 100 µM | A498 > 100 µM | UO-31 > 100 µM | LOX IMVI > 100 µM | A549 > 100 µM | Hs-578T > 100 µM | TK-10 > 100 µM | 786-0 > 100 µM

COc1ccc2nc3ccc(OC)cc3c(SCc3ccc([N+](=O)[O-])cc3)c2c1
inactive: HOP-92 > 100 µM | MDA-MB-435 > 100 µM | OVCAR-4 19 µM | HOP-62 78.9 µM | SF-268 54.7 µM | EKVX > 100 µM | KM12 > 100 µM | NCI-H226 42.8 µM | SW-620 > 100 µM | COLO 205 > 100 µM | DU-145 > 100 µM | CCRF-CEM > 100 µM | A498 > 100 µM | UO-31 > 100 µM | LOX IMVI > 100 µM | A549 > 100 µM | TK-10 34 µM | 786-0 24.7 µM

O=C1c2ccccc2-n2c1nc1ccc(Cl)cc1c2=O
inactive: HOP-92 45.3 µM | SK-MEL-5 > 100 µM | MDA-MB-435 15.6 µM | OVCAR-4 > 100 µM | HOP-62 30.8 µM | EKVX 92 µM | KM12 > 100 µM | NCI-H226 > 100 µM | SW-620 > 100 µM | COLO 205 > 100 µM | DU-145 > 100 µM | CCRF-CEM 3.2 µM | A498 > 100 µM | UO-31 59.4 µM | LOX IMVI > 100 µM | A549 26.1 µM | TK-10 77.4 µM | 786-0 26.1 µM

N#CCc1nc2cc(C(F)(F)F)ccc2s1
inactive: HOP-92 20.4 µM | SK-MEL-5 50.7 µM | MDA-MB-435 40.4 µM | OVCAR-4 38.6 µM | HOP-62 73.3 µM | SF-268 34.8 µM | EKVX 10.7 µM | KM12 64.6 µM | NCI-H226 57.8 µM | SW-620 56.4 µM | COLO 205 34 µM | DU-145 48.3 µM | A498 70 µM | LOX IMVI 26.4 µM | TK-10 41.8 µM | 786-0 37.3 µM

N#CCCC(CC#N)N1CCN(C(CC#N)CCC#N)CC1 (stereo not drawn)
inactive: SK-MEL-5 > 100 µM | OVCAR-4 > 100 µM | HOP-62 > 100 µM | SF-268 > 100 µM | EKVX > 100 µM | NCI-H226 > 100 µM | SW-620 > 100 µM | COLO 205 > 100 µM | DU-145 > 100 µM | CCRF-CEM > 100 µM | UO-31 > 100 µM | A549 > 100 µM | TK-10 > 100 µM | 786-0 > 100 µM

O=C1C(NCCc2cc(Cl)c(O)c(Cl)c2)=CC(=O)c2[nH]cnc21
inactive: SK-MEL-5 17.3 µM | MDA-MB-435 16.7 µM | HOP-62 44 µM | EKVX 32.1 µM | KM12 35.5 µM | SW-620 47.8 µM | COLO 205 21.2 µM | A498 75.7 µM | UO-31 > 100 µM | LOX IMVI 35.2 µM | A549 33.9 µM | Hs-578T 80 µM | TK-10 51.8 µM | 786-0 55.5 µM

CN(C)C(=O)C(F)(F)C(c1ccc(C(F)(F)F)cc1)C1C(=O)N(C)C(=O)N(C)C1=O (stereo not drawn)
inactive: HOP-92 > 100 µM | SK-MEL-5 > 100 µM | MDA-MB-435 > 100 µM | OVCAR-4 > 100 µM | HOP-62 > 100 µM | SF-268 > 100 µM | EKVX > 100 µM | KM12 > 100 µM | NCI-H226 > 100 µM | SW-620 > 100 µM | COLO 205 > 100 µM | DU-145 > 100 µM | CCRF-CEM > 100 µM | A498 > 100 µM | UO-31 > 100 µM | LOX IMVI > 100 µM | A549 > 100 µM | TK-10 > 100 µM | 786-0 > 100 µM

CC(C)OP(=O)(OC(C)C)/C(=N/Nc1ccccc1[N+](=O)[O-])NCCN/C(=N\Nc1ccccc1[N+](=O)[O-])P(=O)(OC(C)C)OC(C)C
inactive: HOP-92 32 µM | SK-MEL-5 > 10 µM | OVCAR-4 48.1 µM | HOP-62 52.8 µM | SF-268 67.1 µM | EKVX 28.9 µM | KM12 40.3 µM | NCI-H226 24.4 µM | SW-620 35.5 µM | COLO 205 25.2 µM | CCRF-CEM 22.2 µM | A498 49.5 µM | UO-31 29.3 µM | LOX IMVI 30.2 µM | A549 29.4 µM | TK-10 39.1 µM | 786-0 33 µM

COc1ccc2nc3ccc(OC)cc3c(SCC3CO3)c2c1 (stereo not drawn)
inactive: SK-MEL-5 15.8 µM | MDA-MB-435 18.2 µM | OVCAR-4 19.5 µM | HOP-62 44.6 µM | SF-268 13.2 µM | EKVX 13.3 µM | KM12 16.1 µM | NCI-H226 34.4 µM | SW-620 11.1 µM | COLO 205 19 µM | CCRF-CEM 6.85 µM | A498 25.8 µM | UO-31 12.3 µM | LOX IMVI 15.4 µM | A549 24.2 µM | TK-10 12.8 µM | 786-0 11.1 µM
